According to PMC5781335, “Identification of danthron as an isoform-specific inhibitor of HEME OXYGENASE-1/cytochrome P450 reductase interaction with anti-tumor activity” (Journal of Biomedical Science, 2018):

T1: heme oxygenase-1 (HO-1) (Homo sapiens, UniProt P09601)
T1 construct: gene HMOX1; Luc-HO-1 (N-terminal luciferase fusion); with cytochrome P450 reductase (CPR-GFP)
T1 sequence (P09601 1-288): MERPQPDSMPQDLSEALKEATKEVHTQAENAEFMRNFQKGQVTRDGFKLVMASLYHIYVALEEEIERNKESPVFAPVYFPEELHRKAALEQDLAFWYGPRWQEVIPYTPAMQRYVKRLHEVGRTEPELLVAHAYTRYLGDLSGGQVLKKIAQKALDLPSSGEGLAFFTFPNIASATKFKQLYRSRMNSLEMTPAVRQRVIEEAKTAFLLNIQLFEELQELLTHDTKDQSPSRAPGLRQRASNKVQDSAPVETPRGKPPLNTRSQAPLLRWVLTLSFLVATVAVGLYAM
T1 sequence (P16435 2-677 partner): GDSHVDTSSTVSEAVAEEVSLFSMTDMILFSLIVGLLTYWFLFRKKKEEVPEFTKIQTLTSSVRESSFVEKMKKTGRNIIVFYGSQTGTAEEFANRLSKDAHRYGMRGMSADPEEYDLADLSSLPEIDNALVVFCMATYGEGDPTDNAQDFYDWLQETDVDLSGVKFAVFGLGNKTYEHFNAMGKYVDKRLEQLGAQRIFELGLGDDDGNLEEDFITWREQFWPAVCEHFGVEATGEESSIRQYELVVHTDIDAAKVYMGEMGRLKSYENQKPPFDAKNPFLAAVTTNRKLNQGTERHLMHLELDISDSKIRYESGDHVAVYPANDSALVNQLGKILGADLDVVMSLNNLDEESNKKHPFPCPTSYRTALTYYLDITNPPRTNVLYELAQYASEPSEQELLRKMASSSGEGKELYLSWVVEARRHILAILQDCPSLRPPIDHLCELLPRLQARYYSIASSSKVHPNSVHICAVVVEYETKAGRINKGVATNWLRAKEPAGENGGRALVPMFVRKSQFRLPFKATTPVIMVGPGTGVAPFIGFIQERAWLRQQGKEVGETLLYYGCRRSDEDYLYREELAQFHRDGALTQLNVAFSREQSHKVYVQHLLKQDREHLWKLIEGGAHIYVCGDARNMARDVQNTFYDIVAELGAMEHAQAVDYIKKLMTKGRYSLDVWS

T2: heme oxygenase-1 (HO-1) (Homo sapiens, UniProt P09601)
T2 construct: gene HMOX1; truncated human HO-1 (aa 13–260), C-terminal 6 x His-tag (pull-down); Luc-HO-1 (BRET); with cytochrome P450 reductase (CPR-GFP)
T2 sequence (P09601 13-260): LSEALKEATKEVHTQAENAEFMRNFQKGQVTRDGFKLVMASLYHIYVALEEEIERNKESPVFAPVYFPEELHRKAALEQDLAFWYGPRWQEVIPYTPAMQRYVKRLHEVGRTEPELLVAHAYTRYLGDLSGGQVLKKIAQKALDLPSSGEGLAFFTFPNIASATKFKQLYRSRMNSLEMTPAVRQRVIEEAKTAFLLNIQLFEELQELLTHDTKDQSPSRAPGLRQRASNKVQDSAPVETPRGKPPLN
T2 sequence (P16435 2-677 partner): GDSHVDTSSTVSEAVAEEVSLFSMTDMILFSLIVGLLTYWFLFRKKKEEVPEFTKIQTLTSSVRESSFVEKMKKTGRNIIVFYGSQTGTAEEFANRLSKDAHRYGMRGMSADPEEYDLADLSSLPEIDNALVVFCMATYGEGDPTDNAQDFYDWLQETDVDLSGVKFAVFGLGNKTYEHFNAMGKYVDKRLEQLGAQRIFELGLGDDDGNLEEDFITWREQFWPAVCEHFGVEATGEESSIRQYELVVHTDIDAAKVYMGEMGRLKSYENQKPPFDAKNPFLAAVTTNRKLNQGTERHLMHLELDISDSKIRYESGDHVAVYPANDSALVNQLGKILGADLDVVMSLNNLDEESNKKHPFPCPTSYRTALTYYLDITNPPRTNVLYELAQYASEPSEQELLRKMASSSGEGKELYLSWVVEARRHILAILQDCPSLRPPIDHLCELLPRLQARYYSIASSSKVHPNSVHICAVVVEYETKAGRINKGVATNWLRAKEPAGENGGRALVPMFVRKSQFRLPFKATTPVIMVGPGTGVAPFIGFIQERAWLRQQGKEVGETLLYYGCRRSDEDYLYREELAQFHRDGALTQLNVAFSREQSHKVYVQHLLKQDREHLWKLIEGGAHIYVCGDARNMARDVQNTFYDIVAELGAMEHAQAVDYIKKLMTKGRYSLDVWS

T3: CPR construct with its carboxyl-terminus fused to GFP (CPR-GFP) (human, UniProt P16435 1-677)
T3 construct: human cytochrome P450 reductase (CPR) cDNA subcloned with GFP2 cDNA into a pCMV-2 vector; BRET acceptor; bait on anti-GFP Sepharose in the pull-down; also called cytochrome P450 reductase; source: HEK293T, transfected; not shown: GFP2, C-terminal, kept
T3 sequence (looked up): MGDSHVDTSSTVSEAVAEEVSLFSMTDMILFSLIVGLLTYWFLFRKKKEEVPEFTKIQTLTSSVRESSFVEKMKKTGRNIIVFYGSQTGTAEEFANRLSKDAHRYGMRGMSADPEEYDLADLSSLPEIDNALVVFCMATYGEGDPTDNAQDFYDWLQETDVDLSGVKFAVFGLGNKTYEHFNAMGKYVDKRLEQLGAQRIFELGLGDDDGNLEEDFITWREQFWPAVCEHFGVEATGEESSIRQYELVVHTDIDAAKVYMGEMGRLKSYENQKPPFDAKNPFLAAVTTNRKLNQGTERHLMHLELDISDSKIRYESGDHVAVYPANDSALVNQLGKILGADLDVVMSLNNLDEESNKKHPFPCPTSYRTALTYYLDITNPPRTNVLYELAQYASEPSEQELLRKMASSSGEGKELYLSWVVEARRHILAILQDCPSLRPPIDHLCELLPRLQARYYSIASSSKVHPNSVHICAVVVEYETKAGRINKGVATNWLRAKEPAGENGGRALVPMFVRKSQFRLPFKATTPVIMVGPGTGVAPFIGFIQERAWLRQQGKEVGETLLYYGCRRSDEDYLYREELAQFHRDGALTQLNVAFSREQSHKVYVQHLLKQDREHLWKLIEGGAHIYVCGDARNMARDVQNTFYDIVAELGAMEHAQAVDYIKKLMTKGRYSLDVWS


Legend:
heme oxygenase-1 (HO-1) [1] = biological target: T1, heme oxygenase-1 (HO-1); experiment: cell-based BRET inhibition of HO-1/CPR interaction in HEK293T
heme oxygenase-1 (HO-1) [2] = biological target: T2, heme oxygenase-1 (HO-1); experiment: pull-down of purified His-HO-1 by resin-bound CPR-GFP ([…] danthron); IC50 from cell-based BRET
[3] = biological target: T3, CPR construct with its …; experiment: pull-down; CPR-GFP immunoprecipitated from HEK293T lysate on anti-GFP-affinity Sepharose, washed, incubated with 1 ug His-HO-1 or His-HO-2 in 100 ul buffer A (20 mM Tris-HCl pH 7.4, 100 mM NaCl) at room temperature for 1 h, without or with 10 uM danthron or anthrarufin; blot with anti-His and anti-GFP; conditions: both partners purified

Molecule	IC50 (heme oxygenase-1 (HO-1) [1]) [µM]	other results
O=C1c2cccc(O)c2C(=O)c2c(O)ccc(O)c21 [1,4,5-trihydroxyanthra-9,10-quinone]	10.4	–
O=C1c2ccccc2C(=O)c2c(O)cccc21 [1-hydroxyanthra-9,10-quinone]	10.1	–
O=C1c2cccc(O)c2C(=O)c2c(O)cccc21 [danthron]	–	IC50 (heme oxygenase-1 (HO-1) [2]): 2.09 µM
recombinant soluble His-tagged HO-2 (His-HO-2), human HO-2 construct (aa 33-288) (domain or fragment, UniProt P30519 33-288, looked up, human heme oxygenase-2, construct aa 33-288, in pQE-60 vector; not shown: His6, C-terminal, kept) LSELLKEGTKEAHDRAENTQFVKDFLKGNIKKELFKLATTALYFTYSALEEEMERNKDHPAFAPLYFPMELHRKEALTKDMEYFFGENWEEQVQCPKAAQKYVERIHYIGQNEPELLVAHAYTRYMGDLSGGQVLKKVAQRALKLPSTGEGTQFYLFENVDNAQQFKQLYRARMNALDLNMKTKERIVEEANKAFEYNMQIFNELDQAGSTLARETLEDGFPVHDGKGDMRKCPFYAAEQDKGALEGSSCPFRTAM	–	binding result [3]: binds
